Data published in ChEMBL document CHEMBL1201862, “PubChem BioAssay data set” (2004).
Activity calls are given as the source filed them.

Columns and labels:
[1] = target: Lysine-specific demethylase 4C (Homo sapiens, UniProt Q9H3R0); assay: inhibition of JMJD2C H3K9me3 demethylation – biochemical, DELFIA europium, cherry-picked samples, dose response (AID 488835); type: functional
[2] = target: Lysine-specific demethylase 4A (Homo sapiens, UniProt O75164); assay: inhibition of JMJD2A H3K9me3 demethylation – biochemical, DELFIA europium, cherry-picked samples, selectivity assay for GASC-1 inhibitor project, dose response (AID 488840)
[3] = target: Tumor necrosis factor (Homo sapiens, UniProt P01375); assay: analog potency on TNFa NF-kB signaling – cell-based, revised, SAR follow-up (AID 2337); type: functional
[4] = tested on: HEK293; assay: cells; settings: Homo sapiens
[5] = target: T1, Nucleotide-binding oligomerization domain-containing protein 1 (Homo sapiens, UniProt Q9Y239); assay: blockers of NOD1 pathway activity – revised, SAR follow-up (AID 2333); type: functional
T1 sequence (Q9Y239 whole entry): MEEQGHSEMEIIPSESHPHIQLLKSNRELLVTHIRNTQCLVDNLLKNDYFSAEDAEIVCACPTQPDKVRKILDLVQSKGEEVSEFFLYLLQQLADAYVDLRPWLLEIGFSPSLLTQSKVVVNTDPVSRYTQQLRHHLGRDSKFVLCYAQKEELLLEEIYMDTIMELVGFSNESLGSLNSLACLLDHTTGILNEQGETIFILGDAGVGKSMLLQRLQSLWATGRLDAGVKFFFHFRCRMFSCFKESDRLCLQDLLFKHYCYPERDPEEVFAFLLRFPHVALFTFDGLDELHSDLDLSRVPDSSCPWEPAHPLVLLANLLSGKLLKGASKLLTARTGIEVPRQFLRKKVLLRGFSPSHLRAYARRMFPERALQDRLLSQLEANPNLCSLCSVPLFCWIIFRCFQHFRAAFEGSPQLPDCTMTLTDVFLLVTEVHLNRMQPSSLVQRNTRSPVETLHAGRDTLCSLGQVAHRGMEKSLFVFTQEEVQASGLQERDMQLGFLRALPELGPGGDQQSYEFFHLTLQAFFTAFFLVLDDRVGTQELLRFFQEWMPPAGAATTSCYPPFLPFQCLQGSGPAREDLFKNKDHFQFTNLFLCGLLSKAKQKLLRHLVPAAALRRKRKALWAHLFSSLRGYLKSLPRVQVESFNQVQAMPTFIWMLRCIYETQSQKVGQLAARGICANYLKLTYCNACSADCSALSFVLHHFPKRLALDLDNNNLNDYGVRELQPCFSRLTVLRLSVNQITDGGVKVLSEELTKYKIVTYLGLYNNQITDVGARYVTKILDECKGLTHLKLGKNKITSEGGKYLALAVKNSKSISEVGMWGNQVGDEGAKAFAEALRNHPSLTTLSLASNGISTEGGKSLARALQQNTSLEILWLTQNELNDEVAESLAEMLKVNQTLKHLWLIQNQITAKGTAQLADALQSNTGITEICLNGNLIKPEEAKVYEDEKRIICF

[6] = T. cruzi infection blockers in NIH3T3 cells – beta-gal luminescence, NIH3T3 host cells, confirmation (AID 2630); type: functional, cell-based; settings: Mus musculus
[7] = Luminescence Cell-Based/Microorganism Confirmation at Dose of Inhibitors of Trypanosoma cruzi Infection. [Related pubchem assays: 1885, 1968 ]; type: functional
[8] = cells; type: functional
[9] = Trypanosoma cruzi growth suppression in host cells – NIH3T3 host cells, beta-gal luminescence, confirmation (AID 2044); type: functional, cell-based;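 note: intracellular parasites grown in NIH/3T3 mouse fibroblasts as host cells; luminescent beta-galactosidase reporter signal from transgenic T. cruzi replicating inside host cells; inhibitors lower the luminescence signal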
[10] = Luminescence Cell-Based Dose Confirmation HTS to Identify Inhibitors of Platelet Dense Granule Release. [Related pubchem assays: 1663 (Primary HTS), 1678 (Summary of Project)]; type: functional
[11] = NIH3T3 cell viability loss – ATP luminescence, mouse fibroblasts, counter-screen, dose response (AID 2010); type: functional, cell-based;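 note: cells exposed to compound for about 90 hours before reading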
[12] = Luminescence Cell-Based Secondary HTS screen to identify cytotoxic compounds of NIH3T3 cells. [Related pubchem assays: 1885, 1968 ]; type: functional
[13] = HepG2 cell cytotoxicity, dose response, cytotoxicity control for non-replicating M. tuberculosis project (AID 489018); type: functional; settings: Mycobacterium tuberculosis
[14] = target: Luciferin 4-monooxygenase (Photinus pyralis, UniProt P08659); assay: inhibition of purified Photinus pyralis luciferase – biochemical, luminescence, dose response (AID 1891)
Sequence of Luciferin 4-monooxygenase (P08659 whole entry): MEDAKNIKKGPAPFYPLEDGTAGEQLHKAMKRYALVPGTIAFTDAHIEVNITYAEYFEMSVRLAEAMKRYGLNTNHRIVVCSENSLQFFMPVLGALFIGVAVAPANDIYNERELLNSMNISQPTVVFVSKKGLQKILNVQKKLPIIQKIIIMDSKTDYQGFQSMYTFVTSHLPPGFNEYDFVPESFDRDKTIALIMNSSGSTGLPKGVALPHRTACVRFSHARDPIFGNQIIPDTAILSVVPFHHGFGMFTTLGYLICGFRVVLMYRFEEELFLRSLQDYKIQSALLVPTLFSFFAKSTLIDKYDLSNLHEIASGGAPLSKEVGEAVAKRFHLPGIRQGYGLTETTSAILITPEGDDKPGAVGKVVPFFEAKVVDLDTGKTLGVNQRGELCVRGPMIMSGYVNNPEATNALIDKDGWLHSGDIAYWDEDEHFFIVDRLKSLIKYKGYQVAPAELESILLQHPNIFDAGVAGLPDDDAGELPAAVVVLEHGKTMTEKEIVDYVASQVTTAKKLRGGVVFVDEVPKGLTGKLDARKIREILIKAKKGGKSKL

[15] = target: Phosphoethanolamine/phosphocholine phosphatase (Homo sapiens, UniProt Q8TCT1); assay: SAR assay for compounds that inhibit PHOSPHO1. [Related pubchem assays (depositor defined):AID1545, AID1565, AID1574]
[16] = target: DNA dC->dU-editing enzyme APOBEC-3G (Homo sapiens, UniProt Q9HC16); assay: Dose Response confirmation of small molecule APOBEC3G DNA Deaminase Inhibitors via a fluorescence-based single-stranded DNA deaminase assay. [Related pubchem assays (depositor defined):AID493012, AID493028]; type: functional
[17] = target: Glucose-6-phosphate 1-dehydrogenase (Homo sapiens, UniProt P11413); assay: inhibition of Homo sapiens G6PD, dose series – biochemical, fluorescence, selectivity assay for P. falciparum G6PD inhibitor project, dose response (AID 504792); type: functional
[18] = target: Phosphomannomutase 2 (Homo sapiens, UniProt O15305); assay: Counter screen SAR assay for PMM2 inhibitors via a fluorescence intensity assay. [Related pubchem assays (depositor defined):AID1545, AID1574]
Sequence of Phosphomannomutase 2 (O15305 whole entry): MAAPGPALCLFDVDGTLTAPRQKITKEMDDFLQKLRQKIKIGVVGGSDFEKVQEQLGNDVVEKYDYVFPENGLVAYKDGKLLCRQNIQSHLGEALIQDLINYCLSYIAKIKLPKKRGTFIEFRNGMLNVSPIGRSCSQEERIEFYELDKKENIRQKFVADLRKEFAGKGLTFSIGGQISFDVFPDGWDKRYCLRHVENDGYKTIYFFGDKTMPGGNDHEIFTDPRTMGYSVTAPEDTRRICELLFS

[19] = target: T2, Mannose-6-phosphate isomerase (Homo sapiens, UniProt P34949); assay: phosphomannose isomerase inhibition – biochemical, fluorescence intensity, confirmation (AID 1535)
T2 sequence (P34949 whole entry): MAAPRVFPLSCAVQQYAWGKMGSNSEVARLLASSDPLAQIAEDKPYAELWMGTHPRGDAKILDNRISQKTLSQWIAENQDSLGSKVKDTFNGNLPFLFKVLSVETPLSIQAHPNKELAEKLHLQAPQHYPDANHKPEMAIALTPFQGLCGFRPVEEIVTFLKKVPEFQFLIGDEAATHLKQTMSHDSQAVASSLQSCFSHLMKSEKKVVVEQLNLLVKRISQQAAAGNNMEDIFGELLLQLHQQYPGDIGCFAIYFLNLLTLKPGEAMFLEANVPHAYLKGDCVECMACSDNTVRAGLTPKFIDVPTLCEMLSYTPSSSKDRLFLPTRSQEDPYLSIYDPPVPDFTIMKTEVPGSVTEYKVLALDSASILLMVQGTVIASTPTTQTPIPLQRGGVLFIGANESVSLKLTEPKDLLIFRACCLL

[20] = tested on: HEK293; assay: cells; type: functional, cell-based; settings: Homo sapiens
[21] = target: G-protein coupled receptor 55 (Homo sapiens, UniProt Q9Y2T6); assay: blockers of GPR55 signalling, imaged – imaging, image-based, counter-screen for GPR35 antagonist project, SAR follow-up (AID 2397); type: functional
[22] = microbe, parasite or virus in culture; type: functional; settings: Mycobacterium tuberculosis
[23] = NIH-3T3 fibroblast cytotoxicity, dose response, cytotoxicity control, cell-based, fluorescence, Alamar Blue, secondary assay (AID 2327); type: functional;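 note: NIH-3T3 mouse fibroblasts cultured with fluconazole at 8 µg/mL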
[24] = tested on: HEK293; assay: NOD2 signaling inhibitors in MDP-stimulated cells, cell-based, uHTS, luminescence (AID 2001); type: functional; settings: Homo sapiens
[25] = tested on: HEK293; assay: inhibition of NOD1-driven NF-kB reporter – cell-based, luminescence, uHTS, primary screen (AID 1578); type: functional; settings: Homo sapiens
[26] = target: Nucleotide-binding oligomerization domain-containing protein 2 (Homo sapiens, UniProt Q9HC29); assay: inhibition of NOD2-driven NF-kB reporter – cell-based, luminescence, uHTS, HEK293 (AID 1566); type: functional
Sequence of Nucleotide-binding oligomerization domain-containing protein 2 (Q9HC29 whole entry, the tested form may be a part): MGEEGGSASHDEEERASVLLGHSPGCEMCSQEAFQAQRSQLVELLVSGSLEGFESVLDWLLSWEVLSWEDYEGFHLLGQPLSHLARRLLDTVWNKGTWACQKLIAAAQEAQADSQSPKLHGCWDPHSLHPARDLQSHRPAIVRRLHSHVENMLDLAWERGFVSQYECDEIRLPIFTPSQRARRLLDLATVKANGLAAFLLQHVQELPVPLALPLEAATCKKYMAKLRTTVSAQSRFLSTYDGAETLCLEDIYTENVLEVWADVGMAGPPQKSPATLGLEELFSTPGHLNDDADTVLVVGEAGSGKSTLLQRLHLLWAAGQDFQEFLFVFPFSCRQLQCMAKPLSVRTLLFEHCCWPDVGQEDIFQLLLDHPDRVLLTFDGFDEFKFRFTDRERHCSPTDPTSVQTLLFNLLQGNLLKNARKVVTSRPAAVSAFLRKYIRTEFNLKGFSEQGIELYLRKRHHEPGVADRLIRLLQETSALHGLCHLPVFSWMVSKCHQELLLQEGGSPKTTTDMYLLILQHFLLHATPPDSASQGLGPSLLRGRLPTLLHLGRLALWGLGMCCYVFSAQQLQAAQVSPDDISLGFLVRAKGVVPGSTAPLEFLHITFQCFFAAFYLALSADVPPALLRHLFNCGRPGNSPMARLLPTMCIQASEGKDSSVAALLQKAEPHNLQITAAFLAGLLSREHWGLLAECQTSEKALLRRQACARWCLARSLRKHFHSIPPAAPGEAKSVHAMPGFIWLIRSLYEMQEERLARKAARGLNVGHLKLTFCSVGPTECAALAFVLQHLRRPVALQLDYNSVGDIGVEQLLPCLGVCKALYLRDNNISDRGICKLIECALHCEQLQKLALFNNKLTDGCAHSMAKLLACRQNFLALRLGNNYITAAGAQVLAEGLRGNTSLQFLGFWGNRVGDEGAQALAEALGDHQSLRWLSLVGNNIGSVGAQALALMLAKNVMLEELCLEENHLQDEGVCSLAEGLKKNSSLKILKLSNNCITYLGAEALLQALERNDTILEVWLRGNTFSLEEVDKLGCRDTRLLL

[27] = tested on: HEK293; assay: cells; type: functional, cell-based; settings: Homo sapiens; remark: listed apart in the source
[28] = fluconazole-exposed Candida albicans growth modulators – fluorescence, retest, confirmation (AID 2467); type: functional, cell-based
[29] = tested on: INS1; assay: INS-1E survival protection against cytokine death – cell-based, luminescence, retest, dose response (AID 449756); type: functional; settings: Rattus norvegicus;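 note: cell death triggered by IL-1 beta plus TNF-alpha plus IFN-gamma mixture; protective hits raise ATP signal compared with cytokine alone wells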
[30] = tested on: HEK293; assay: cells; type: functional, cell-based; settings: Homo sapiens; remark: listed apart in the source
[31] = target: T3, Voltage-gated N-type calcium channel alpha-1B subunit/Amyloid beta A4 precursor protein-binding family A member 1 (Homo sapiens, UniProt Q00975+Q02410); assay: disruptors of Mint-PDZ/N-type channel peptide interaction – biochemical, HTRF, SAR follow-up (AID 2489); type: functional
T3 sequence (Q00975 whole entry): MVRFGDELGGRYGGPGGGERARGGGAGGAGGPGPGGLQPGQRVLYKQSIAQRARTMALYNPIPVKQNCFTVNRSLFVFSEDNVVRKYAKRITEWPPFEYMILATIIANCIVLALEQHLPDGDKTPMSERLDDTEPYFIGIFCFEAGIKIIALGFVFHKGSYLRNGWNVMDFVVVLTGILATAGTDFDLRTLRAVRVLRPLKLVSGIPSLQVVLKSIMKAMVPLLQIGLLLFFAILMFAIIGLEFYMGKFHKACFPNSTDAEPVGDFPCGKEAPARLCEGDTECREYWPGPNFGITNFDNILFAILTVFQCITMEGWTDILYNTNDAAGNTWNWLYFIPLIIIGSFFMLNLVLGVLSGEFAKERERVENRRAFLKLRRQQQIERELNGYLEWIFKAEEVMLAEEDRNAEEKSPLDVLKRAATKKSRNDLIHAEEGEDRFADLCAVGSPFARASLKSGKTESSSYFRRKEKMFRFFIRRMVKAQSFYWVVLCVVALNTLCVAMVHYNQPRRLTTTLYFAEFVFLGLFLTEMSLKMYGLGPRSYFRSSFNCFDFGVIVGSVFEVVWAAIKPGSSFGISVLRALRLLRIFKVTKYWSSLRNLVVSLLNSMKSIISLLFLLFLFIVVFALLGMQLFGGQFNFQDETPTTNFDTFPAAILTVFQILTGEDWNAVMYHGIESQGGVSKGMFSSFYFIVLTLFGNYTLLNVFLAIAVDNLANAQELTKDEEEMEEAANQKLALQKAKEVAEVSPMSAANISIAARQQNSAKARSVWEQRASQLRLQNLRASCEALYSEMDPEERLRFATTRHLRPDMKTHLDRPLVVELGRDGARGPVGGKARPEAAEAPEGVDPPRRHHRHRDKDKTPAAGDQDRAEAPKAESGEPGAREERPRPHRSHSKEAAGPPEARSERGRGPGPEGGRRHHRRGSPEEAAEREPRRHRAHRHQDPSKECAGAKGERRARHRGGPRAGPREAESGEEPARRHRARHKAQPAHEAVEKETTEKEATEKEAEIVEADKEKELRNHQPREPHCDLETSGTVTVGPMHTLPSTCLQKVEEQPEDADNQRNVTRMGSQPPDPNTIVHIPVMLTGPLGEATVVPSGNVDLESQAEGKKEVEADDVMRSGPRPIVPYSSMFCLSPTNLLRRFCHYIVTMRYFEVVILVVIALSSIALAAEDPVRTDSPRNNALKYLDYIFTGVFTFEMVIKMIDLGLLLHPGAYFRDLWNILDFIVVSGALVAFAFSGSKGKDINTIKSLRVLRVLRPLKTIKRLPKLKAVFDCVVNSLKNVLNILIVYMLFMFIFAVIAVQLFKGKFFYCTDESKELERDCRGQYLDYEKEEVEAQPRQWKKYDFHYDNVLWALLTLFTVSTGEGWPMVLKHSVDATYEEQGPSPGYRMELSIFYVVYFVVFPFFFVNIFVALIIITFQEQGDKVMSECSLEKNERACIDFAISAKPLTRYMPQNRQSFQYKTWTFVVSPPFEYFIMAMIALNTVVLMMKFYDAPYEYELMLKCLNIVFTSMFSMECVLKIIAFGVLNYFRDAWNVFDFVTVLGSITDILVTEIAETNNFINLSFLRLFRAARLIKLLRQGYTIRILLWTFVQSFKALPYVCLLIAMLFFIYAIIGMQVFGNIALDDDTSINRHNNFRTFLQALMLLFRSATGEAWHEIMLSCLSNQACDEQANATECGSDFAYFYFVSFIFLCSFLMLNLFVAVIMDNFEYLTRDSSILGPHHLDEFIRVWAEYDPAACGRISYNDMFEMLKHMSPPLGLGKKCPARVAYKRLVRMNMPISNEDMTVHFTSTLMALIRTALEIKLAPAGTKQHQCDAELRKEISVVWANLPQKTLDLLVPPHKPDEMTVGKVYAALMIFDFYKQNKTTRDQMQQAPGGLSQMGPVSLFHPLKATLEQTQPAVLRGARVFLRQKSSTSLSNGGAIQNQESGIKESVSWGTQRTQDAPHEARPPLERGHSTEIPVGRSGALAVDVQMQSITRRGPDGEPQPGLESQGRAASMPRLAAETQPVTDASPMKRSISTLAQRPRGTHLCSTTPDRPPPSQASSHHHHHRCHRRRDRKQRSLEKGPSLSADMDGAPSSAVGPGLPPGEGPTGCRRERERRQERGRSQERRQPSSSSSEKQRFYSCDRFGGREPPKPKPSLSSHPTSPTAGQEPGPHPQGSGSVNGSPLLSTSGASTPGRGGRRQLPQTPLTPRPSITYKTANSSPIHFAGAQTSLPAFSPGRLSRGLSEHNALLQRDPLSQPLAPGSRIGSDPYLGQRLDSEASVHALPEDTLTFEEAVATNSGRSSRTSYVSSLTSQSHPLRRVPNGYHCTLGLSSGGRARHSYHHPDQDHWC
T3 sequence (Q02410 whole entry): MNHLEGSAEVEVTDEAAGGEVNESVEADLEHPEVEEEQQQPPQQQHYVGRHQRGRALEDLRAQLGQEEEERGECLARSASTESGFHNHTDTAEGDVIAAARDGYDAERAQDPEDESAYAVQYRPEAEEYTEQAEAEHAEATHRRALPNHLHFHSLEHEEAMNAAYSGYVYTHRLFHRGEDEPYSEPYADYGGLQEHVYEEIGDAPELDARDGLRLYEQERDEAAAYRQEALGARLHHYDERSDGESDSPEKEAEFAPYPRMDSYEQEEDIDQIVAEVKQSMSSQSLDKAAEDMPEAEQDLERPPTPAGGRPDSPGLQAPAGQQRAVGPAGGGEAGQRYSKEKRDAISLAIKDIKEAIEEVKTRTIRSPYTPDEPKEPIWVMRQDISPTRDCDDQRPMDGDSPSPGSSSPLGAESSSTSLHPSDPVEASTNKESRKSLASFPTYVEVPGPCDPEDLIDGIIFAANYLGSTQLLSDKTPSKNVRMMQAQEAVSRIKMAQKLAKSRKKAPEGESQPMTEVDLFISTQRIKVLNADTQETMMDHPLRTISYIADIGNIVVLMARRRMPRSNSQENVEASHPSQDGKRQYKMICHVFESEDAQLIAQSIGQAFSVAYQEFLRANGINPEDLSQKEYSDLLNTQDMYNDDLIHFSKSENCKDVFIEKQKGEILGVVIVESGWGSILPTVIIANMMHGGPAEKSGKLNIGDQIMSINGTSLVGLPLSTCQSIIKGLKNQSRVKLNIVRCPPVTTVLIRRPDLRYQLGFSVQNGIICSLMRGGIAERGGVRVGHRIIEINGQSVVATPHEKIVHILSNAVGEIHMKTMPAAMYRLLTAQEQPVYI

[32] = target: T3, Voltage-gated N-type calcium channel alpha-1B subunit/Amyloid beta A4 precursor protein-binding family A member 1; assay: disruptors of Mint-PDZ/N-type channel peptide interaction – biochemical, HTRF, set 2, SAR follow-up (AID 434980); type: functional
[33] = target: SUMO E1/E2 (Homo sapiens, UniProt P63279+Q9UBE0+Q9UBT2); assay: SAR analysis of SUMOylation using HTRF in an in-Vitro dose response assay. [Related pubchem assays (depositor defined):AID2006, AID2011, AID2018, AID2069, AID2658]; type: functional

O=C1NC(=O)C(=NNC(=O)C2COc3ccccc3O2)C(=O)N1 (stereo not given)
AC50 [1]: 2.66 µM (active)
AC50 [2]: 11.7 µM (active)

CCC(=O)N1c2ccc(S(=O)(=O)N3CCN(c4ccc(Cl)cc4)CC3)cc2CC1C (stereo not given)
IC50 [3]: 584 nM (active)
IC50 [4]: 6.8 µM (active)
IC50 [5]: 1.01 µM (active)

OC(COc1ccc2ccccc2c1Br)Cn1ccnc1 (stereo not given)
EC50 [6]: 2.07 µM (active)
EC50 [7]: 2.07 µM (active)
IC50 [8]: 14.3 µM (active)
EC50 [9]: 501 nM (active)
EC50 [10]: > 112 µM (not active)
EC50 [11]: > 60 µM (not active)
EC50 [12]: > 195 µM (not active)
CC50 [13]: > 20 µM (active)
EC50 [14]: > 112 µM (not active)

O=c1c2ccccc2sn1-c1ccc(S(=O)(=O)N2CCCCC2)cc1
IC50 [15]: 38.9 µM (inactive)
IC50 [16]: 19.4 µM (active)
IC50 [17]: > 80 µM (inactive)
IC50 [18]: > 100 µM (inactive)
IC50 [19]: > 50 µM (inactive)

Cc1ccc2c(c1)c(/C=C/c1cc[n+](C)cc1)c(C)n2C
EC50 [9]: 294 nM (active)
IC50 [20]: > 20 µM (inactive)
IC50 [21]: 462 nM (active)
CC50 [22]: > 40 µM (active)
EC50 [23]: > 160 µM (inactive)
IC50 [24]: 14.7 µM (inactive)
EC50 [25]: 17.3 µM (active)
EC50 [11]: > 60 µM (not active)
EC50 [26]: 4.42 µM (active)
IC50 [27]: > 20 µM (inactive)
EC50 [28]: 590 nM (active)
AC50 [29]: 3.46 µM (active)
IC50 [30]: 18 µM (active)

COc1ccc(CNC(=O)C(C)OC(=O)c2cc(-c3ccco3)nc3ccccc23)cc1 (stereo not given)
IC50 [31]: 17.5 µM (active)
IC50 [32]: 8.2 µM (active)
IC50 [33]: 7.68 µM (active)
